Experimental data reported in patent publication US6743929B1, “Sulfonylalkanoylamino hydroxyethylamino sulfonamides useful as retroviral protease inhibitors” (G. D. Searle & Co., priority 1992, dated 2004).
Read-outs that look alike come from different tables or passages of the source.

Legend:
[1] = target: T1, HIV protease (Human immunodeficiency virus type 1 group M subtype B, UniProt P04585); assay: HIV protease enzyme assay (fluorogenic substrate 2-aminobenzoyl-Ile-Nle-Phe(p-NO2)-Gln-ArgNH2); assay type: biochemical
T1 construct: HIV protease is diluted in the assay buffer to a final enzyme concentration of 12.3 nanomolar, based on a molecular weight of 10,780
Excerpt: The compounds of the present invention are effective HIV protease inhibitors. Utilizing an enzyme assay as described below, the compounds set forth in the examples herein disclosed inhibited the HIV enzyme. The preferred compounds of the present invention and their calculated IC50 (inhibiting concentration 50%, i.e., the concentration at which the inhibitor compound reduces enzyme activity by 50%) values are sh6wn in Table 16. The enzyme method is described below. The substrate is 2-aminobenzoyl-Ile-Nle-Phe(p-NO2)-Gln-ArgNH2. The positive control is MVT-101 (Miller, M. et al, Science, 246, 1149 (1989)] The assay conditions are as follows:
The above described substrate is dissolved in DMSO, then diluted 10 fold in assay buffer. Final substrate concentration in the assay is 80 μM.
HIV protease is diluted in the assay buffer to a final enzyme concentration of 12.3 nanomolar, based on a molecular weight of 10,780.
The final concentration of DMSO is 14% and the final concentration of glycerol is 18%. The test compound is dissolved in DMSO and diluted in DMSO to 10×the test concentration; 10 μl of the enzyme preparation is added, the materials mixed and then the mixture is incubated at ambient temperature for 15 minutes. The enzyme reaction is initiated by the addition of 40 μl of substrate. The increase in fluorescence is monitored at 4 time points (0, 8, 16 and 24 minutes) at ambient temperature. Each assay is carried out in duplicate wells.

[2] = test system: HIV-1; assay: CEM cell assay: HIV inhibition in acutely infected cells (MTT); assay type: cell-based; conditions: Human immunodeficiency virus 1, CCRF-CEM, 168 h
Procedure: The effectiveness of compounds of the present invention were determined in a CEM cell assay.
(§1) The HIV inhibition assay method of acutely infected cells is an automated tetrazolium based calorimetric assay essentially that reported by Pauwles et al, J. Virol. Methods, 20, 309-321 (1988). Assays were performed in 96-well tissue culture plates. CEM cells, a CD4+ cell line, were grown in RPMI-1640 medium (Gibco) supplemented with a 10% fetal calf serum and were then treated with polybrene (2 μg/ml). An 80 μl volume of medium containing 1×10^4 cells was dispensed into each well of the tissue culture plate. To each well was added a 100 μl volume of tesc compound dissolved in tissue culture medium (or medium without test compound as a control) to achieve the desired final concentration and the cells were incubated at 37° C. for 1 hour. A frozen culture of HIV-1 was diluted in culture medium to a concentration of 5×10^4 TCID50 per ml (TCID50=the dose of virus that infects 50% of cells in tissue culture), and a 20 μL volume of the virus sample (containing 1000 TCID50 of virus) was added to wells containing test compound and to wells containing only medium (infected control cells). Several wells received culture medium without virus (uninfected control cells). Likewise, the intrinsic toxicity of the test compound was determined by adding medium without virus to several wells containing test compound. In summary, the tissue culture plates contained the following experiments:
(§2) In experiments 2 and 4 the final concentrations of test compounds were 1, 10, 100 and 500 μg/ml. Either azidothymidine (AZT) or dideoxyinosine (ddI) was included as a positive drug control. […] DMSO was added to all control wells at an appropriate concentration.
(§3) Following the addition of virus, cells were incubated at 37° C. in a humidified, 5% CO2 atmosphere for 7 days. Test compounds could be added on days 0, 2 and 5 if desired. On day 7, post-infection, the cells in each well were resuspended and a 100 μl sample of each cell suspension was removed for assay. A 20 μL volume of a 5 mg/ml solution of 3-(4,5-dimethylthiazol-2-yl)-2,5-diphenyltetrazolium bromide (MTT) was added to each 100 μL cell suspension, and the cells were incubated for 4 hours at […] in a 5% CO2 environment. […] To each sample was added 100 μl of 10% sodium dodecylsulfate in 0.01 N HCl to lyse the cells, and samples were incubated overnight. The absorbance at 590 nm was determined for each sample using a Molecular Devices microplate reader. Absorbance values for each set of wells is compared to assess viral control infection, uninfected control cell response as well as test compound by cytotoxicity and antiviral efficacy.

[3] = test system: CEM cells; assay: CEM cell assay: intrinsic toxicity of test compound in uninfected cells (MTT); assay type: cell-based; conditions: Table 10, CEM cells without virus, 7 days
Procedure: as §1, §2, §3

[4] = Table 10, CEM cells infected with HIV-1, 7 days, MTT, read-out: EC50

Structure (SMILES) | IC50 [1] [nM] | EC50 [2, 4] [nM] | TD50 (nM) [3] | EC50 [2] [nM]
CCCCN(C[C@@H](O)[C@H](Cc1ccccc1)NC(=O)[C@H](C)CS(C)(=O)=O)S(=O)(=O)c1ccc(OC)cc1 (relative stereo) [Example 8, Propanamide, N-[2-Hydroxy-3-[(butyl)(4-methoxyphenylsulfonyl)amino]-1-(phenylmethyl)propyl]-2-methyl-3-(methylsulfonyl)-,[1S-[1R*(R*),2S*]]-] | 3.1 | 9 | >1,000,000 nM | –
CC(C)CCN(C[C@@H](O)[C@H](Cc1ccccc1)NC(=O)[C@H](C)CS(C)(=O)=O)S(=O)(=O)c1ccc(N)cc1 (relative stereo) [Example 11, Propanamide, N-[2-Hydroxy-3-[(3-methylbutyl)(4-aminophenylsulfonyl)amino]-1-(phenylmethyl)propyl]-2-methyl-3-(methylsulfonyl)-,[1S-[1R*(R*),2S*]]-] | 7.8 | 45 | 170,000 nM | –
COc1ccc(S(=O)(=O)N(CCC(C)C)C[C@@H](O)[C@H](Cc2ccccc2)NC(=O)[C@H](C)CS(C)(=O)=O)cc1 (relative stereo) [Example 2, Propanamide, N-[2-Hydroxy-3-[(3-methylbutyl)(4-methoxyphenylsulfonyl)aminol-1-(phenylmethyl)propyl]-2-methyl-3-(methylsulfonyl)-[1S-[1R*(R*),2S*]]-] | 3.2 | 12 | 90,000 nM | –
CCCN(C[C@@H](O)[C@H](Cc1ccccc1)NC(=O)[C@H](C)CS(C)(=O)=O)S(=O)(=O)c1ccc(OC)cc1 (relative stereo) [Example 9, propanamide, N-[2-Hydroxy-3-[(propyl)(4-methoxyphenylsulfonyl)amino]-1-(phenylmethyl)propyl]-2-methyl-3-(methylsulfonyl)-,[1S-[1R*(R*),2S*]]-] | 4.1 | 16 | >1,000,000 nM | –
COc1ccc(S(=O)(=O)N(CC(C)C)C[C@@H](O)[C@H](Cc2ccccc2)NC(=O)[C@H](C)CS(C)(=O)=O)cc1OC (relative stereo) [Example 12, Propanamide, N-[2-Hydroxy-3-[(2-methylpropyl)(3.4-dimethoxyphenylsulfonyl)amino]-1-(phenylmethyl)propyl]-2-methyl-3-(methylsulfonyl)-,[1S-[1R*(R*),2S*]]-] | 38 | 87 | 77,000 nM | –
CC(C)CCN(C[C@@H](O)[C@H](Cc1ccccc1)NC(=O)[C@H](C)CS(C)(=O)=O)S(=O)(=O)c1ccccc1 (relative stereo) [Example 4, Propanamide, N-[2-Hydroxy-3-[(3-methylbutyl)(phenylsulfonyl)amino]-1-(phenylmethyl)propyl]-2-methyl-3-(methylsulfonyl)-. [1S-[1R*(R*), 2S*]]-] | 3 | 12 | >1,000,000 nM | –
CC(=O)Nc1ccc(S(=O)(=O)N(CC(C)C)C[C@@H](O)[C@H](Cc2ccccc2)NC(=O)[C@H](C)CS(C)(=O)=O)cc1 (relative stereo) [Example 10, Propanamide, N-[2-Hydroxy-3-[(2-methylpropyl)(4-acetamido)phenylsulfonyl)amino]-1-(phenylmethyl)propyl]-2-methyl-3-(methylsulfonyl)-,[1S-[1R*(R*),2S*]]-] | – | – | 860,000 nM | 223
CC(C)CN(C[C@@H](O)[C@H](Cc1ccccc1)NC(=O)[C@H](C)CS(C)(=O)=O)S(=O)(=O)c1ccccc1 (relative stereo) [Example 3, Propanamide, N-[2-Hydroxy-3-[(2-methylpropyl)(phenylsulfonyl)amino]-1-(phenylmethyl)propyl]-2-methyl-3-(methylsulfonyl)-, [1S-[1R*(R*),2S*]]-] | 3.2 | 10 | 213,000 nM | –
CCCCN(C[C@@H](O)[C@H](Cc1ccccc1)NC(=O)[C@H](C)CS(C)(=O)=O)S(=O)(=O)c1ccccc1 (relative stereo) [Example 6, Propanamide, N-[2-Hydroxy-3-(butyl)(phenylsulfonyl)amino]-1-(phenylmethyl)propyl]-2-methyl-3-(methylsulfonyl)-. [1S-[1R*(R*),2S*]]-] | 8.8 | 29 | 133,000 nM | –
CCCN(C[C@@H](O)[C@H](Cc1ccccc1)NC(=O)[C@H](C)CS(C)(=O)=O)S(=O)(=O)c1ccccc1 (relative stereo) [Example 5, Propanamide, N-[2-Hydroxy-3-(propyl)(phenylsulfonyl)amino]-1-(phenylmethyl)propyl]-2-methyl-3-(methylsulfonyl)-, [1S-[1R* (R*), 2S*]]-] | 13 | 25 | 438,000 nM | –
COc1ccc(S(=O)(=O)N(CC(C)C)C[C@@H](O)[C@H](Cc2ccccc2)NC(=O)[C@H](C)CS(C)(=O)=O)cc1 (relative stereo) [Example 7, propanamide, N-[2-Hydroxy-3-[(2-methylpropyl)(4-methoxyphenylsulfonyl)amino]-1-(phenylmethyl)propyl]-2-methyl-3-(methylsulfonyl)-,[1S-[1R*(R*),2S*]]-] | 1.9 | 2 | >1,000,000 nM | –
